Test results published in patent US20240024273A1, “TOPICAL ADMINISTRATION OF 2-(DIETHYLAMINO)ETHYL 2-(4-ISOBUTYLPHENYL)PROPRIONATE FOR TREATMENT OF DISEASES” (TECHFIELDS PHARMA CO., LTD., priority 2020, published 2024).
“And” between values parts separate entries of the source, which are not always exact repeats. Equal entries are not always repeated.

Assays:
dogs = test: Cardiovascular telemetry study in the unrestrained conscious non-naïve dog; format: in vivo; conditions: dermal 10, 25 and 50 mg/kg; up to 48 hours
[1] = test system: Mild to Moderate Osteoarthritis of the Knee; test: Phase 2 study: physician's global assessment of disease status; format: in vivo, human
Source text: 3.9.3. Exploratory Efficacy Endpoints: • 1. Subject's global assessment of disease status of the target knee at 2, 4, 8, and 12 weeks of treatment; • 2. Investigator's global assessment of disease status of the target knee at 2, 4, 8, and 12 weeks of treatment; • 3. Subject's global assessment of response to therapy of the target knee at 2, 4, 8, and 12 weeks of treatment; • 4. Investigator's global assessment of response to therapy of the target knee at 2, 4, 8, and 12 weeks of treatment; • 5. Change from Baseline over time in VAS pain scores for the target knee from Daily Diary data; • 6. Amount of rescue medication (acetaminophen) consumed per day for target knee pain.
Data for the exploratory efficacy endpoints will be summarized using descriptive statistics.

[2] = test system: healthy male and female volunteers; test: Phase 1 clinical study: safety (adverse events, laboratory, vital signs, ECG); format: in vivo, human; conditions: for Subjects with at least one TEAE: N = 8
Source text: Safety assessments included monitoring of adverse events (AEs), vital signs (blood pressure, pulse rate, respiratory rate and oral temperature), clinical laboratory findings, resting 12-lead electrocardiogram (ECG) results, skin irritation assessments and physical examination findings.
Safety endpoints consist of all AEs, clinical laboratory test results, ECG, physical examination and vital sign assessments and skin irritation assessments.
Safety summaries are provided for all subjects in the safety population. Data from subjects in each cohort who received placebo treatment were pooled. AE data, clinical laboratory test results, ECG, skin irritation and vital signs data are presented descriptively using summary tables and listings. Change from baseline in vital signs, ECG and clinical laboratory results are presented descriptively using summary tables and listings. Physical examination findings are listed by subject.
Samples for clinical laboratory safety tests (chemistry, hematology, urinalysis) were obtained at the screening visit, Day −1, Day 4, Day 13 and prior to discharge from the study on Day 17 or at early termination. Any clinical laboratory findings considered to be clinically significant were recorded as AEs.
Systolic and diastolic blood pressure (mmHg) and pulse rate (beats per minute), respiratory rate (breaths per minute) and oral temperature (° C.) were measured after at least 5 minutes at rest in the seated position at the screening visit, at admission on Day −1, Day 5 and Day 13, and prior to and 1 hour following each dose administration.
A physical examination was performed at the screening visit and on Day 13, or at early termination, and included assessment of the following body systems: general appearance, dermatological, head, eyes, ears, nose and throat, neck, lymph nodes, lungs, heart, abdomen, neurological and musculoskeletal.
A resting 12-lead ECG was recorded after at least 5 minutes of rest at the screening visit and on Day 13, or at early termination. The ECG parameters recorded include ventricular rate (bpm), PR interval (msec), QRS duration (msec), QT interval (msec), and QTc interval (msec). QTc interval was calculated at the clinic using a formula internal to the ECG equipment (Mortara).

Sprague Dawley rats = test: Behavioral effects, functional observational battery; format: in vivo; conditions: single dermal dose 50, 250, 750 mg/kg
[3] = N = 8 each, dose by column: c1 17.5, c2 35, c3 70, c4 140, c5 280 mg topical, c6 70 mg spray

CCN(CC)CCOC(=O)C(C)c1ccc(CC(C)C)cc1 (centres unmarked) [2-(diethylamino)ethyl 2-(4-isobutylphenyl)propionate]
qualitative ECG parameters (dogs): 25, and 50 mg/kg of ibuprofenamine and vehicle in dogs. There were no effects | Physician's Global Assessment of Disease Status: Improved (percentage of patients who improved by 2 grades or more from baseline, or from 1 to 0) ([1]; 8.75 mg/knee (BID)): 10.5% | Physician's Global Assessment of Disease Status: Worsened (percentage of patients who worsened by 2 grades or more from baseline, or from 3 to 4) ([1]; 8.75 mg/knee (BID)): 1.8% | patients improved by 2 grades or more from baseline (physician's global assessment) ([1]; 8.75 mg/knee (BID)): 10.5% | Physician's Global Assessment of Disease Status: Improved (percentage of patients who improved by 2 grades or more from baseline, or from 1 to 0) ([1]; 17.5 mg/knee (BID)): 35.6% | Physician's Global Assessment of Disease Status: Worsened (percentage of patients who worsened by 2 grades or more from baseline, or from 3 to 4) ([1]; 17.5 mg/knee (BID)): 1.7% | Physician's Global Assessment of Disease Status: Improved (percentage of patients who improved by 2 grades or more from baseline, or from 1 to 0) ([1]; 35 mg/knee (BID)): 30.9% | Physician's Global Assessment of Disease Status: Worsened (percentage of patients who worsened by 2 grades or more from baseline, or from 3 to 4) ([1]; 35 mg/knee (BID)): 0% | Subjects with at least one TEAE ([2]; 17.5 mg topical): 1 (12.5%) n (%) and 1 (12.5) n (%) | Headache, subjects ([2]; 35 mg topical): 2 (25.0%) | Subjects with at least one TEAE ([2]; 35 mg topical): 3 (37.5%) n (%) and 3 (37.5) n (%) | Subjects with at least one TEAE ([2]; 70 mg spray): 2 (25.0%) n (%) and 2 (25.0) n (%) | Subjects with at least one TEAE ([2]; 70 mg topical): 1 (12.5%) n (%) and 1 (12.5) n (%) | Headache, subjects ([2]; 140 mg topical): 1 (12.5%) | Subjects with at least one TEAE ([2]; 140 mg topical): 1 (12.5%) n (%) and 1 (12.5) n (%) | Subjects with at least one TEAE ([2]; 280 mg topical): 1 (12.5%) n (%) and 1 (12.5) n (%) | safety and tolerability ([2]; 17.5-280 mg topical and 70 mg spray, single and multiple doses): safe and well-tolerated | Subjects who discontinued due to an AE [2, 3]: 0 | Subjects with SAEs [2, 3]: 0 | TEAE: Dizziness [2, 3]: 0 n (%) | TEAE: Vomiting [2, 3]: 0 n (%) | intensity of AEs ([2]; all dose groups): mild or moderate in intensity | aspartate aminotransferase (ast) increased, subjects ([2]; each of 70 mg topical and 70 mg spray): 1 (12.5%) | alanine aminotransferase (ALT) increased, subjects ([2]; each of 70 mg, 280 mg topical and 70 mg spray): 1 (12.5%) | ECG parameters ([2]; human, in vivo): no clinically significant ECG parameter values | deaths ([2]; human, in vivo): No subjects died | laboratory findings vs dose ([2]; human, in vivo): no apparent trends or dose relationship | vital signs ([2]; human, in vivo): no clinically significant vital sign values | neurobehavioral changes (FOB test) (Sprague Dawley rats): 250, and 750 mg/kg of ibuprofenamine were not associated with any
